Key:
Assay in all cases: GloSensor cAMP luminescence in HEK293T
Assay type in all cases: cell-based
Conditions in all cases: agonist; co-expressed Golf alpha and RTP1S; N = 12
Olfr1258 (mOR232-3) = molecular target: T1, Olfr1258 (mOR232-3) (Mus musculus, UniProt Q8VGN6)
T1 construct: gene Or4c10; full-length from mouse genomic DNA in pCI-neo; N-terminal rhodopsin and myc tags; HEK293T with co-transfected Golf alpha, RTP1S and GloSensor-22F

Olfr168 (mOR271-1) = molecular target: T2, Olfr168 (mOR271-1) (Mus musculus, UniProt A0PK36)
T2 construct: full-length from mouse genomic DNA in pCI-neo; N-terminal rhodopsin and myc tags; HEK293T with co-transfected Golf alpha, RTP1S and GloSensor-22F
T2 sequence (A0PK36 1-312): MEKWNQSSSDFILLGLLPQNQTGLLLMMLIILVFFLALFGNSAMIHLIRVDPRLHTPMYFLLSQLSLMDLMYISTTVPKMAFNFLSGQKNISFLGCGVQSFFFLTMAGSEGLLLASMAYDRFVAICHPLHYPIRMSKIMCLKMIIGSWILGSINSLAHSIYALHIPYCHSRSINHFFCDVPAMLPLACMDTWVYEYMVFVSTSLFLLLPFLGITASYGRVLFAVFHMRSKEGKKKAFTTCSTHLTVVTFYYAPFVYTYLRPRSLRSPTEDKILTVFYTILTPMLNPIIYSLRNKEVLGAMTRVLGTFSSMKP

Olfr45 (mOR253-2) = molecular target: T3, Olfr45 (mOR253-2) (Mus musculus, UniProt A0JLW4)
T3 construct: full-length from mouse genomic DNA in pCI-neo; N-terminal rhodopsin and myc tags; HEK293T with co-transfected Golf alpha, RTP1S and GloSensor-22F
T3 sequence (A0JLW4 1-311): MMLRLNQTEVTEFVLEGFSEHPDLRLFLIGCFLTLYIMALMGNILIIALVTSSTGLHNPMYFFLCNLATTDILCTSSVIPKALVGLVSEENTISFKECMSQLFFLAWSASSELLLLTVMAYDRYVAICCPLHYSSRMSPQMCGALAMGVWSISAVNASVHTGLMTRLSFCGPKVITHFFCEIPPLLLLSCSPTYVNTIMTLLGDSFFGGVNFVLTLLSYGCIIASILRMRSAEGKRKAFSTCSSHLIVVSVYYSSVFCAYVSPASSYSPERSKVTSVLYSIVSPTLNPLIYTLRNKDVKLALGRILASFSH

Olfr166 (mOR270-1) = molecular target: T4, Olfr166 (mOR270-1) (Mus musculus, UniProt Q0VEL6)
T4 construct: full-length from mouse genomic DNA in pCI-neo; N-terminal rhodopsin and myc tags; HEK293T with co-transfected Golf alpha, RTP1S and GloSensor-22F
T4 sequence (Q0VEL6 1-312): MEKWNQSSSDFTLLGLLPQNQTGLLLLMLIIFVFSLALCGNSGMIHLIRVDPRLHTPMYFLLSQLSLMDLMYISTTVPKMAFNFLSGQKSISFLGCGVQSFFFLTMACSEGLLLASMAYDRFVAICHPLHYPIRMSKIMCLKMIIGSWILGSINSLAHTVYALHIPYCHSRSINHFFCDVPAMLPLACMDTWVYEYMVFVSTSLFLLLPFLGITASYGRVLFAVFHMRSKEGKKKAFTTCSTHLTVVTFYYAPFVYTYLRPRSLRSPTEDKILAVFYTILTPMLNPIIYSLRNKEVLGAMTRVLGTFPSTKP

T1 sequence (Q8VGN6 1-311): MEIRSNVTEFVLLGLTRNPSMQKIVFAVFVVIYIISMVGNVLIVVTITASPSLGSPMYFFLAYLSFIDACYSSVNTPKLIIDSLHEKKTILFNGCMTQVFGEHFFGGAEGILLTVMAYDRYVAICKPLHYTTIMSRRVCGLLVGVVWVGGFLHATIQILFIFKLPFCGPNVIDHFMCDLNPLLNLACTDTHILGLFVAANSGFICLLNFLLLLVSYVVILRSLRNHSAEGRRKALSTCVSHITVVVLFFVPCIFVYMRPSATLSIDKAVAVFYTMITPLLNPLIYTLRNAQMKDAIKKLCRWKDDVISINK

## CCC(C)=O [2-butanone]
Olfr1258 (mOR232-3)
  GloSensor cAMP luminescence in HEK293T: Olfr1258 was activated by 2-butanone

## CCCC(C)=O [2-pentanone]
Olfr168 (mOR271-1)
  EC50: 2100 ± 600 µM

## c1ccncc1 [pyridine]
Olfr45 (mOR253-2)
  GloSensor cAMP luminescence in HEK293T: both Olfr45 and Olfr166 were activated by pyridine
Olfr166 (mOR270-1)
  GloSensor cAMP luminescence in HEK293T: both Olfr45 and Olfr166 were activated by pyridine

Source: PMC4735795, “Deciphering the Receptor Repertoire Encoding Specific Odorants by Time-Lapse Single-Cell Array Cytometry” (Scientific Reports, 2016)
